Experimental findings from PubChem BioAssay AID651557 (The Scripps Research Institute Molecular Screening Center, 2012) are described below.

This assay deals with Melanocortin receptor 4 (Homo sapiens) (UniProt P32245). Nature of the assay: inhibition of agonist-driven MC4R beta-arrestin coupling – luminescence, biased ligand project, U2OS cells, late-stage follow-up (AID 651557). Conditions: U2OS MC4R beta-arrestin recruitment, beta-gal complementation luminescence.

SMILES strings stand for the structures. Active and inactive are the calls of the source.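 The calls were made as follows: active = IC50 half-maximal inhibitory concentration at most 10 µM; inactive = IC50 above 10 µM.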

Sequence of Melanocortin receptor 4 (Homo sapiens) (P32245 whole entry, looked up): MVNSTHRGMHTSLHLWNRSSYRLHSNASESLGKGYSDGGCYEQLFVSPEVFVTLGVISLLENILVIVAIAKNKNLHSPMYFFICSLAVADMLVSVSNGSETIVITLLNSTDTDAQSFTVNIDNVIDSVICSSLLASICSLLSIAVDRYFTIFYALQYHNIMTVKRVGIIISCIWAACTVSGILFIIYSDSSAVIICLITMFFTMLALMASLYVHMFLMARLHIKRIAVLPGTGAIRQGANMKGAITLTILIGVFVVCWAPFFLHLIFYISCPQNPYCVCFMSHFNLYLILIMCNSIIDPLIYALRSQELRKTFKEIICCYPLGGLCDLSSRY

As a reminder, the IC50 is the point on the concentration scale where inhibition reaches its midpoint. With `CC1CCCCN1S(=O)(=O)c1ccc(NC(=O)c2nc(S(C)(=O)=O)ncc2Cl)cc1` (configuration not stated), the IC50 is 3.55 µM.
In the case of `CCC1CCCCN1S(=O)(=O)c1ccc(NC(=O)c2ccccc2)cc1` (configuration not stated) it was > 50 µM (inactive); in that of `C#CC(=O)N(c1ccc(OC)c(OC)c1)C(C(=O)NC1CCCC1)c1cccs1` (configuration not stated), “inactive”; in that of `CNC(=O)c1cc(Oc2ccc(NCC(=O)Nc3ccc(Cl)c(C(F)(F)F)c3)cc2)ccn1`, > 50 µM (inactive).
With `CCC1CCCCN1S(=O)(=O)c1ccc(NC(=O)c2ccnc(SC)n2)cc1` (configuration not stated), the IC50 is > 50 µM (inactive).
Then `CC(=O)c1ccc(Nc2nc3ccc(C(=O)N(CCC(C)C)CCC(C)C)cc3n2CCCN2CCCCC2)cc1`, with 0.00232 µM; and `CCC1CCCCN1S(=O)(=O)c1ccc(NC(=O)c2cccc(S(C)(=O)=O)c2)cc1` (configuration not stated), with > 50 µM (inactive); and `COc1ccccc1C1(CCNC(C)c2cccs2)CCOC(C(C)C)C1` (configuration not stated), with 6.73 µM.
In the case of `O=C1c2cccc3cccc(c23)C(=O)N1CC1CCN(CC(O)COc2ccc3ccccc3c2)CC1` (configuration not stated) it was > 50 µM (inactive).
Then `Cc1ccccc1CN1Cc2cnnn2-c2ccccc2C1C#N` (configuration not stated), with “inactive”; and `CNC(=O)c1cc(Oc2ccc(NC(=O)CNc3ccc(Cl)c(C(F)(F)F)c3)cc2)ccn1`, with > 50 µM (inactive).
With `COc1ccc(N(C(C)=O)C(C(=O)NC2CCCC2)c2cccs2)cc1OC` (configuration not stated), the IC50 is > 50 µM (inactive).
